We go through four molecules from US8722849B2, “Polypeptides” (Novo Nordisk A/S, priority 2011, dated 2014).

Starred links: 1 amine or outer side, 2 acyl side, 3 side chain; linkers in the order of their positions; H or OH if unused. Positions of bridges follow the written chain, without caps; N, C: chain ends. Residues, ends and D or L forms follow the SMILES beside them. Groups on a side chain read outwards from the residue. *: point of attachment. C20 diacid = O=C(O)CCCCCCCCCCCCCCCCCCC(=O)*; C18 diacid = O=C(O)CCCCCCCCCCCCCCCCC(=O)*; γGlu = O=C(O)[C@H](CCC(=O)[*:2])N[*:1]; AEEA = NCCOCCOCC(=O)O Where only a bound is given, the exact number is not on record here.

A short description of the data set: Assay (III) ThT fibrillation assay for physical stability. Format: physicochemical. The source says: ASSAY (III)—ThT Fibrillation Assays for the Assessment of Physical Stability of Protein formulations Low physical stability of a polypeptide may lead to amyloid fibril formation, which is observed as well-ordered, thread-like macromolecular structures in the sample eventually resulting in gel formation. This has traditionally been measured by visual inspection of the sample. However, that kind of measurement is very subjective and depending on the observer. Therefore, the application of a small molecule indicator probe is much more advantageous. Thioflavin T (ThT) is such a probe and has a distinct fluorescence signature when binding to fibrils [Naiki et al. (1989) Anal. Biochem. 177, 244-249; LeVine (1999) Methods. Enzymol. […], 274-284]. The time course for fibril formation can be described by a sigmoidal curve with the following expression [Nielsen et al. (2001) Biochemistry 40, 6036-6046]: [formula] Here, F is the ThT fluorescence at the time t. The constant t0 is the time needed to reach 50% of maximum fluorescence. […] Few of those intermediates nucleate to form a template onto which further intermediates may assembly and the fibrillation proceeds. The lag-time corresponds to the interval in which the critical mass of nucleus is built up and the apparent rate constant is the rate with which the fibril itself is formed. Sample Preparation Samples were prepared freshly before each assay. Each sample composition is described in each example. The pH of the sample was adjusted to the desired value using appropriate amounts of concentrated NaOH and HClO4 or HCl. Thioflavin T was added to the samples from a stock solution in H2O to a final concentration of 1 μM. Sample aliquots of 200 μl were placed in a 96 well microtiter plate (Packard OptiPlate™-96, white polystyrene). Usually, four or eight replica of each sample (corresponding to one test condition) were placed in one column of wells. The plate was sealed with Scotch Pad (Qiagen). Incubation and Fluorescence Measurement Incubation at given temperature, shaking and measurement of the ThT fluorescence emission were done in a Fluoroskan Ascent FL fluorescence platereader or Varioskan platereader (Thermo Labsystems). The temperature was adjusted to 37° C. The orbital shaking was adjusted to 960 rpm with an amplitude of 1 mm in all the presented data. Fluorescence measurement was done using excitation through a 444 nm filter and measurement of emission through a 485 nm filter. Each run was initiated by incubating the plate at the assay temperature for 10 min. The plate was measured every 20 minutes for a desired period of time. Between each measurement, the plate was shaken and heated as described. Data Handling The measurement points were saved in Microsoft Excel format for further processing and curve drawing and fitting was performed using GraphPad Prism. The background emission from ThT in the absence of fibrils was negligible. The data points are typically a mean of four or eight samples and shown with standard deviation error bars. Only data obtained in the same experiment (i.e. samples on the same plate) are presented in the same graph ensuring a relative measure of fibrillation between experiments. The data set may be fitted to Eq. (1). However, since full sigmodial curves in this case are not always achieved during the measurement time, the degree of fibrillation is expressed as ThT fluorescence tabulated as the mean of the samples and shown with the standard deviation at various time points. Measurement of Initial and Final Concentrations The polypeptide concentration in each of the tested formulations were measured both before application in the ThT fibrillation assay (“Initial”) and after completion of the ThT fibrillation (“After ThT assay”). Concentrations were determined by reverse HPLC methods using a pramlintide standard as a reference. Before measurement after completion 150 μl was collected from each of the replica and transferred to an Eppendorf tube. […]

`CC(C)C[C@H](NC(=O)[C@H](CCCNC(=N)N)NC(=O)[C@H](CCC(N)=O)NC(=O)[C@@H](NC(=O)[C@H](C)NC(=O)[C@@H]1CSSC[C@H](NC(=O)[C@H](Cc2c[nH]cn2)NC(=O)CC[C@H](NC(=O)CCCCCCCCCCCCCCCCCCC(=O)O)C(=O)O)C(=O)N[C@@H](CC(N)=O)C(=O)N[C@@H]([C@@H](C)O)C(=O)N[C@@H](C)C(=O)N[C@@H]([C@@H](C)O)C(=O)N1)[C@@H](C)O)C(=O)N[C@@H](C)C(=O)N[C@@H](CCC(=O)O)C(=O)N[C@@H](Cc1ccccc1)C(=O)N[C@@H](CC(C)C)C(=O)N[C@@H](Cc1c[nH]cn1)C(=O)N[C@@H](CCCNC(=N)N)C(=O)N[C@@H](CO)C(=O)N[C@@H](CO)C(=O)N[C@@H](CC(N)=O)C(=O)N[C@@H](CC(N)=O)C(=O)N[C@@H](Cc1ccccc1)C(=O)NCC(=O)N[C@@H](C)C(=O)N1CCC[C@H]1C(=O)N[C@@H](CC(C)C)C(=O)N[C@@H](CO)C(=O)N[C@@H](CO)C(=O)N[C@H](C(=O)N[C@@H](CC(N)=O)C(=O)N[C@H](C(=O)NCC(=O)N[C@@H](CO)C(=O)N[C@@H](CC(N)=O)C(=O)N[C@H](C(=O)N[C@@H](Cc1ccc(O)cc1)C(N)=O)[C@@H](C)O)C(C)C)[C@@H](C)O` [Example 6, N-alpha-[(S)-4-Carboxy-4-(19-carboxynonadecanoylamino)butyryl]-[His1,Glu14,His17,Arg18,Ala25,Pro26,Ser28,Ser29]-pramlintide] ({C20 diacid-γGlu}-HCNTATCATQRLAEFLHRSSNNFGAPLSSTNVGSNTY-NH2; disulfide 2-7 (inferred)): under “ThT fibrillation assay”, the “ThT pH 4.0 lag time (h)” value is 14 h.
For the molecule `CC[C@H](C)[C@H](NC(=O)[C@@H]1CCCN1C(=O)CNC(=O)[C@H](Cc1ccccc1)NC(=O)[C@H](CC(N)=O)NC(=O)[C@H](CCCCNC(=O)COCCOCCNC(=O)COCCOCCNC(=O)CC[C@H](NC(=O)CCCCCCCCCCCCCCCCC(=O)O)C(=O)O)NC(=O)[C@H](CO)NC(=O)[C@H](CO)NC(=O)[C@H](Cc1c[nH]cn1)NC(=O)[C@H](Cc1c[nH]cn1)NC(=O)[C@H](CC(C)C)NC(=O)[C@H](Cc1ccccc1)NC(=O)[C@H](CCC(=O)O)NC(=O)[C@H](C)NC(=O)[C@H](CC(C)C)NC(=O)[C@H](CCCNC(=N)N)NC(=O)[C@H](CCC(N)=O)NC(=O)[C@@H](NC(=O)[C@H](C)NC(=O)[C@@H]1CSSC[C@H](NC(=O)[C@@H](N)CCCCN)C(=O)N[C@@H](CC(N)=O)C(=O)N[C@@H]([C@@H](C)O)C(=O)N[C@@H](C)C(=O)N[C@@H]([C@@H](C)O)C(=O)N1)[C@@H](C)O)C(=O)N[C@@H](CC(C)C)C(=O)N1CCC[C@H]1C(=O)N1CCC[C@H]1C(=O)N[C@H](C(=O)N[C@@H](CC(N)=O)C(=O)N[C@H](C(=O)NCC(=O)N[C@@H](CO)C(=O)N[C@@H](CCC(=O)O)C(=O)N[C@H](C(=O)N[C@@H](Cc1ccc(O)cc1)C(N)=O)[C@@H](C)O)C(C)C)[C@@H](C)O` [Example 74, N-epsilon21-[2-(2-{2-[2-(2-{2-[(S)-4-Carboxy-4-(17-carboxyheptadecanoylamino)butyrylamino]ethoxy}ethoxy)acetylamino]ethoxy}ethoxy)acetyl]-[Glu14,His17,Lys21,Glu35]-pramlintide] (H-KCNTATCATQRLAEFLHHSSK([AEEA-AEEA-γGlu-C18 diacid])NFGPILPPTNVGSETY-NH2; disulfide 2-7 (inferred)), the “ThT pH 4.0 lag time” value (Table 8) is reported as greater than 45 h, the “ThT pH 4.0 lag time” value (Table 9) is recorded as greater than 45 h and the “ThT pH 4.0 lag time” value (ThT fibrillation assay) is listed as greater than 45 h. The “ThT pH 4.0 lag time (h)” value (ThT fibrillation assay) is on record as greater than 45 h.
In the case of `CC[C@H](C)[C@H](NC(=O)[C@H](CCCCNC(=O)COCCOCCNC(=O)COCCOCCNC(=O)CC[C@H](NC(=O)CCCCCCCCCCCCCCCCC(=O)O)C(=O)O)NC(=O)CNC(=O)[C@H](Cc1ccccc1)NC(=O)[C@H](CC(N)=O)NC(=O)[C@H](CC(N)=O)NC(=O)[C@H](CO)NC(=O)[C@H](CO)NC(=O)[C@H](Cc1c[nH]cn1)NC(=O)[C@@H](NC(=O)[C@H](CC(C)C)NC(=O)[C@H](Cc1ccccc1)NC(=O)[C@H](CCC(=O)O)NC(=O)[C@H](C)NC(=O)[C@H](CC(C)C)NC(=O)[C@H](CCCNC(=N)N)NC(=O)[C@H](CCC(N)=O)NC(=O)[C@@H](NC(=O)[C@H](C)NC(=O)[C@@H]1CSSC[C@H](NC(=O)[C@@H](N)CCCCN)C(=O)N[C@@H](CC(N)=O)C(=O)N[C@@H]([C@@H](C)O)C(=O)N[C@@H](C)C(=O)N[C@@H]([C@@H](C)O)C(=O)N1)[C@@H](C)O)C(C)C)C(=O)N[C@@H](CC(C)C)C(=O)N1CCC[C@H]1C(=O)N1CCC[C@H]1C(=O)N[C@H](C(=O)N[C@@H](CC(N)=O)C(=O)N[C@H](C(=O)NCC(=O)N[C@@H](CO)C(=O)N[C@@H](CC(N)=O)C(=O)N[C@H](C(=O)N[C@@H](Cc1ccc(O)cc1)C(N)=O)[C@@H](C)O)C(C)C)[C@@H](C)O` [Example 126, N-epsilon25-[2-(2-{2-[2-(2-{2-[(S)-4-Carboxy-4-(17-carboxyheptadecanoylamino)butyrylamino]ethoxy}ethoxy)acetylamino]ethoxy}ethoxy)acetyl]-[Glu14,Lys25]-pramlintide] (H-KCNTATCATQRLAEFLVHSSNNFGK([AEEA-AEEA-γGlu-C18 diacid])ILPPTNVGSNTY-NH2; disulfide 2-7 (inferred)), for the setting “ThT fibrillation assay”, the “ThT pH 4.0 lag time (h)” value is 10 h.
On the same count and under the same terms, the result for `CC(C)C[C@H](NC(=O)[C@H](CCCNC(=N)N)NC(=O)[C@H](CCC(N)=O)NC(=O)[C@@H](NC(=O)[C@H](C)NC(=O)[C@@H]1CSSC[C@H](NC(=O)[C@@H](N)CCCCNC(=O)CC[C@H](NC(=O)CCCCCCCCCCCCCCCCCCC(=O)O)C(=O)O)C(=O)N[C@@H](CC(N)=O)C(=O)N[C@@H]([C@@H](C)O)C(=O)N[C@@H](C)C(=O)N[C@@H]([C@@H](C)O)C(=O)N1)[C@@H](C)O)C(=O)N[C@@H](C)C(=O)N[C@@H](CCC(=O)O)C(=O)N[C@@H](Cc1ccccc1)C(=O)N[C@@H](CC(C)C)C(=O)N[C@@H](Cc1c[nH]cn1)C(=O)N[C@@H](Cc1c[nH]cn1)C(=O)N[C@@H](CO)C(=O)N[C@@H](CO)C(=O)N[C@@H](CCC(N)=O)C(=O)N[C@@H](CC(N)=O)C(=O)N[C@@H](Cc1ccccc1)C(=O)NCC(=O)N[C@@H](C)C(=O)N1CCC[C@H]1C(=O)N[C@@H](CC(C)C)C(=O)N[C@@H](CO)C(=O)N[C@@H](CO)C(=O)N[C@H](C(=O)N[C@@H](CC(N)=O)C(=O)N[C@H](C(=O)NCC(=O)N[C@@H](CO)C(=O)N[C@@H](CC(N)=O)C(=O)N[C@H](C(=O)N1CCC[C@H]1C(N)=O)[C@@H](C)O)C(C)C)[C@@H](C)O` [Example 151, N-epsilon1-[(S)-4-Carboxy-4-(19-carboxynonadecanoylamino)butyryl]-[Glu14,His17,Gln21,Ala25,Pro26,Ser28,Ser29,Pro37]-pramlintide] (H-K([γGlu-C20 diacid])CNTATCATQRLAEFLHHSSQNFGAPLSSTNVGSNTP-NH2; disulfide 2-7 (inferred)) reads 9 h.
